In brackets after ≈: the same amount, converted by molar mass. Read-outs that look alike come from different tables or passages of the source.
How the values were obtained:
[1] = tested on: E. coli; assay: protective effect on infected mice (intraperitoneal infection with E. coli); assay type: in vivo; settings: Escherichia coli, 168 h, male mice ICR/SLC, 7 days observation
Source text: *Test animals: male mice (ICR/SLC) 5 mice per group per single
Infection: intraperitoneally with E. coli
Observation period: 7 days

[2] = tested on: Proteus morganii IFO 3168; assay: minimal inhibitory concentration against P. morganii IFO 3168; assay type: cell-based; settings: Morganella morganii, IFO3168
[3] = tested on: E. coli NIHJ; assay: minimal inhibitory concentration against E. coli NIHJ; assay type: cell-based; settings: Escherichia coli
[4] = tested on: Proteus vulgaris IFO 3988; assay: minimal inhibitory concentration against P. vulgaris IFO 3988; assay type: cell-based; settings: IFO3988
[5] = tested on: Proteus mirabilis GN 4359; assay: minimal inhibitory concentration against P. mirabilis GN 4359; assay type: cell-based; settings: GN4359
[6] = tested on: Serratia TN 0024; assay: minimal inhibitory concentration against Serratia TN 0024; assay type: cell-based
[7] = tested on: Acinetobacter anitratus TN-1140; assay: minimal inhibitory concentration against Acinetobacter anitratus TN-1140; assay type: cell-based; settings: Acinetobacter calcoaceticus, TN1140
[8] = tested on: P. vulgaris GN 4413; assay: minimal inhibitory concentration against P. vulgaris GN 4413; assay type: cell-based; settings: Proteus vulgaris, GN4413
[9] = tested on: Ent. cloacae TN1282; assay: minimal inhibitory concentration against Ent. cloacae TN1282; assay type: cell-based; settings: Enterobacter cloacae
[10] = tested on: E. coli T-7; assay: minimal inhibitory concentration against E. coli T-7; assay type: cell-based; settings: Escherichia coli, T7
[11] = tested on: Klebsiella pneumoniae GN 3835; assay: minimal inhibitory concentration against K. pneumoniae GN 3835; assay type: cell-based; settings: GN3835
[12] = tested on: Proteus rettgeri GN 4733; assay: minimal inhibitory concentration against P. rettgeri GN 4733; assay type: cell-based; settings: Providencia rettgeri, GN4733
[13] = tested on: Ps. aeruginosa GN3407; assay: minimal inhibitory concentration against Ps. aeruginosa GN3407; assay type: cell-based; settings: Pseudomonas aeruginosa
[14] = tested on: Ps. aeruginosa P2; assay: minimal inhibitory concentration against Ps. aeruginosa P2; assay type: cell-based; settings: Pseudomonas aeruginosa
[15] = tested on: E. coli 0-111; assay: minimal inhibitory concentration against E. coli 0-111; assay type: cell-based, Escherichia coli; settings: 0111
[16] = tested on: Serratia marcescens IFO 12648; assay: minimal inhibitory concentration against Serr. marcescens IFO 12648; assay type: cell-based; settings: IFO12648
[17] = tested on: Klebsiella pneumoniae DT; assay: minimal inhibitory concentration against K. pneumoniae DT; assay type: cell-based
[18] = tested on: Citrobacter freundii GN 1706; assay: minimal inhibitory concentration against Cit. freundii GN 1706; assay type: cell-based; settings: GN1706
[19] = tested on: Citrobacter freundii GN 99; assay: minimal inhibitory concentration against Cit. freundii GN 99; assay type: cell-based; settings: GN99
[20] = tested on: Ps. aeruginosa Pd 1; assay: minimal inhibitory concentration against Ps. aeruginosa Pd 1; assay type: cell-based; settings: Pseudomonas aeruginosa, PD1
[21] = tested on: Ps. aeruginosa PM 3; assay: minimal inhibitory concentration against Ps. aeruginosa PM 3; assay type: cell-based; settings: Pseudomonas aeruginosa, PM3
[22] = tested on: P. rettgeri 8(TN0336); assay: minimal inhibitory concentration against P. rettgeri 8 (TN0336); assay type: cell-based, Proteus rettgeri; settings: Providencia rettgeri
[23] = tested on: Enterobacter cloacae IFO 12937; assay: minimal inhibitory concentration against Ent. cloacae IFO 12937; assay type: cell-based
[24] = P. morganii IFO 3168, read-out: minimal inhibitory concentration
[25] = Proteus vulgaris, P. vulgaris IFO 3988, read-out: minimal inhibitory concentration
[26] = Proteus mirabilis, P. mirabilis GN 4359, read-out: minimal inhibitory concentration
[27] = TN0024, Serratia TN 0024, read-out: minimal inhibitory concentration
[28] = Klebsiella pneumoniae, K. pneumoniae GN 3835, read-out: minimal inhibitory concentration
[29] = P. rettgeri GN 4733, read-out: minimal inhibitory concentration
[30] = Escherichia coli, E. coli 0-111, read-out: minimal inhibitory concentration
[31] = Serratia marcescens, Serr. marcescens IFO 12648, read-out: minimal inhibitory concentration
[32] = Klebsiella pneumoniae, K. pneumoniae DT, read-out: minimal inhibitory concentration
[33] = Citrobacter freundii, Cit. freundii GN 1706, read-out: minimal inhibitory concentration
[34] = Citrobacter freundii, Cit. freundii GN 99, read-out: minimal inhibitory concentration
[35] = P. rettgeri 8(TN0336), read-out: minimal inhibitory concentration

Row | Compound | ED50 ([1]; subcutaneous (SC)) [mg/kg] | MIC [2, 24] [µg/mL] | MIC [3] [µg/mL] | MIC [4, 25] [µg/mL] | MIC [5, 26] [µg/mL] | MIC [6, 27] [µg/mL] | MIC [7] [µg/mL] | MIC [8] [µg/mL] | MIC [9] [µg/mL] | MIC [10] [µg/mL] | MIC [11, 28] [µg/mL] | MIC [12, 29] [µg/mL] | MIC [13] [µg/mL] | MIC [14] [µg/mL] | MIC [15, 30] [µg/mL] | MIC [16, 31] [µg/mL] | MIC [17, 32] [µg/mL] | MIC [18, 33] [µg/mL] | MIC [19, 34] [µg/mL] | MIC [22, 35] [µg/mL] | other results
1 | O=C(Cc1cccs1)N[C@@H]1C(=O)N2C(C(=O)[O-])=C(C[n+]3ccccc3)CS[C@H]12 [CER, cephaloridine, reference compound] | 1.25 | – | – | – | – | – | – | – | – | – | – | – | – | – | – | – | – | – | – | – | –
2 | CO/N=C(\C(=O)NC1C(=O)N2C(C(=O)O)=C(C)CSC12)c1csc(N)n1 (stereo not drawn) [Example 5, sodium 7-[2-(2-aminothiazol-4-yl)-2-(syn)-methoxyiminoacetamido]desacetoxycephalosporanate] | 0.111 | 12.5 | 0.78 | 0.2 | 0.1 | 1.56 | 12.5 | 1.56 | 50 | 6.25 | 0.2 | 0.1 | > 100 | > 100 | 0.39 | 12.5 | 0.2 | 6.25 | 3.13 | ≤ 0.012 | MIC [20]: > 100 µg/mL; MIC [21]: 25 µg/mL
3 | CO/N=C(\C(=O)NC1C(=O)N2C(C(=O)O)=C(CSc3nnnn3CCN(C)C)CSC12)c1csc(N)n1 (stereo not drawn) [(e), 7-[2-(2-Aminothiazol-4-yl)-2-(syn)-methoxyiminoacetamido]-3-[1-(2-N,N-dimethylaminoethyl)-1,2,3,4-tetrazol-5-yl]thiomethyl-3-cephem-4-carboxylic acid betaine] | – | 0.2 (≈ 0.352 µM) | 0.2 (≈ 0.352 µM) | 0.2 (≈ 0.352 µM) | 0.39 (≈ 0.686 µM) | 0.78 (≈ 1.37 µM) | – | 1.56 (≈ 2.74 µM) | – | 1.56 (≈ 2.74 µM) | 0.2 (≈ 0.352 µM) | 0.78 (≈ 1.37 µM) | – | – | 0.024 (≈ 0.0422 µM) | 1.56 (≈ 2.74 µM) | 0.1 (≈ 0.176 µM) | 0.78 (≈ 1.37 µM) | 0.2 (≈ 0.352 µM) | 0.024 (≈ 0.0422 µM) | MIC ([23]; Enterobacter cloacae, Ent. cloacae IFO12937, read-out: minimum inhibitory concentration): 6.25 µg/mL (≈ 11 µM)
4 | CO/N=C(\C(=O)NC1C(=O)N2C(C(=O)O)=C(COC(N)=O)CSC12)c1csc(N)n1 (stereo not drawn) [Example 1, sodium 7-[2-(2-aminothiazol-4-yl)-2-(syn)-methoxyiminoacetamido]-3-carbamoyloxymethyl-3-cephem-4-carboxylate] | 0.015 | 0.39 | 0.1 | ≤ 0.02 | ≤ 0.02 | 0.2 | 6.25 | 1.56 | 6.25 | 0.39 | 0.05 | 0.05 | > 100 | 25 | 0.024 | 1.56 | < 0.012 | 0.39 | 0.2 | ≤ 0.012 | MIC [20]: 50 µg/mL; MIC [21]: 3.13 µg/mL
5 | CO/N=C(\C(=O)NC1C(=O)N2C(C(=O)O)=C(CSc3nnnn3C)CSC12)c1csc(N)n1 (stereo not drawn) [Example 2] | 0.022 | 0.05 (≈ 0.0977 µM) | 0.1 (≈ 0.195 µM) | 0.024 (≈ 0.0469 µM) | 0.1 (≈ 0.195 µM) | 0.2 (≈ 0.391 µM) | 25 (≈ 48.9 µM) | 0.39 (≈ 0.762 µM) | 1.56 (≈ 3.05 µM) | 0.78 (≈ 1.52 µM) | 0.2 (≈ 0.391 µM) | 0.2 (≈ 0.391 µM) | 50 (≈ 97.7 µM) | 50 (≈ 97.7 µM) | 0.024 (≈ 0.0469 µM) | 0.78 (≈ 1.52 µM) | 0.024 (≈ 0.0469 µM) | 0.2 (≈ 0.391 µM) | 0.1 (≈ 0.195 µM) | ≤ 0.012 | MIC [20]: 12.5 µg/mL (≈ 24.4 µM); MIC [21]: 0.78 µg/mL (≈ 1.52 µM)
6 | CC1=C(C(=O)O)N2C(=O)[C@@H](NC(=O)[C@H](N)c3ccccc3)[C@H]2SC1 [CEX, cephalexin, reference compound] | – | – | – | – | – | – | – | – | – | – | – | – | – | – | – | – | – | – | – | – | ED50 ([1]; oral): 2.51 mg/kg
7 | CO/N=C(\C(=O)NC1C(=O)N2C(C(=O)O)=C(COC(C)=O)CSC12)c1csc(N)n1 (stereo not drawn) [Example 3, sodium 7-[2-(2-aminothiazol-4-yl)-2-(syn)-methoxyiminoacetamido]cephalosporanate] | 0.018 | 0.2 | 0.2 | 0.024 | 0.05 | 0.78 | 25 | 0.78 | 6.25 | 0.78 | 0.05 | 0.2 | 50 | 50 | 0.05 | 3.13 | 0.024 | 0.39 | 0.2 | ≤ 0.012 | MIC [20]: 25 µg/mL; MIC [21]: 1.56 µg/mL
8 | CO/N=C(\C(=O)NC1C(=O)N2C(C(=O)OCOC(=O)C(C)(C)C)=C(CSc3nnnn3C)CSC12)c1csc(N)n1 (stereo not drawn) [Example 15] | – | – | – | – | – | – | – | – | – | – | – | – | – | – | – | – | – | – | – | – | ED50 ([1]; oral): 0.11 mg/kg
9 | CO/N=C(/C(=O)NC1C(=O)N2C(C(=O)O)=C(COC(N)=O)CSC12)c1csc(N)n1 (stereo not drawn) [compound 27, sodium 7-[(2-aminothiazol-4-yl)-α-(anti)-methoxyimino]acetamido-3-carbamoyloxymethyl-3-cephem-4-carboxylate, reference compound] | – | – | – | – | – | – | – | – | – | – | – | – | – | – | – | – | – | – | – | – | MIC ([2]; Proteus morganii IFO 3168, read-out: MIC): 0.78 µg/mL; MIC ([4]; Proteus vulgaris IFO 3988, read-out: MIC): 0.39 µg/mL; MIC ([5]; Proteus mirabilis GN 4359, read-out: MIC): 0.78 µg/mL; MIC ([6]; Serratia TN0024, read-out: MIC): 6.25 µg/mL; MIC ([11]; Klebsiella pneumoniae GN 3835, read-out: MIC): 6.25 µg/mL; MIC ([12]; Proteus rettgeri GN 4733, read-out: MIC): 0.78 µg/mL; MIC ([23]; IFO12937, Enterobacter cloacae IFO 12937, read-out: MIC): 25 µg/mL; MIC ([15]; Escherichia coli 0-111, read-out: MIC): 0.78 µg/mL; MIC ([16]; Serratia marcescens IFO 12648, read-out: MIC): 12.5 µg/mL; MIC ([17]; Klebsiella pneumoniae DT, read-out: MIC): 1.56 µg/mL; MIC ([18]; Citrobacter freundii GN 1706, read-out: MIC): 3.13 µg/mL; MIC ([19]; Citrobacter freundii GN 99, read-out: MIC): 1.56 µg/mL; MIC ([22]; Proteus rettgeri 8 TNO 336, read-out: MIC): < 0.2 µg/mL

Reference: US4278671A, “7-[2-(2-Aminothiazol-4-yl)-2-(syn)-methoxyiminoacetamido] cephalosporins” (Takeda Chemical Industries, Ltd., priority 1976, dated 1981)
